What all share (format): cell-based
The test system of assay [1] is Mino cells. The assay can be described thus: Antiproliferative effect, MTS cell viability assay, Mino cells. The settings on record: Homo sapiens, MINO, Mino mantle cell lymphoma cells; read-out: IC50 (anti-proliferation) Mino cells. An outline of the steps: (§1)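 Tested at six concentrations (0 to 10 μM in tenfold steps), 72 h; viability by MTS, A490.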
For orientation: Formazan colour is commonly taken as a measure of viable cells.

Assay [2] relates to JeKo-1 cells. The assay can be described thus: Antiproliferative effect, MTS cell viability assay, JeKo-1 cells. The settings on record: Homo sapiens; JeKo-1 mantle cell lymphoma cells; read-out: IC50 (anti-proliferation) JeKO-1 cells. In a few lines: as §1
Assay [3] has as its target BTK (Homo sapiens, UniProt Q06187). As to the kind of experiment: BTK degradation, DC50 and Dmax of Table 1 (cell line not given). Details: endogenous in cells. The conditions noted are these: for DC50: concentration giving 50% reduction of BTK expression level.

Chain of BTK (Q06187 whole entry): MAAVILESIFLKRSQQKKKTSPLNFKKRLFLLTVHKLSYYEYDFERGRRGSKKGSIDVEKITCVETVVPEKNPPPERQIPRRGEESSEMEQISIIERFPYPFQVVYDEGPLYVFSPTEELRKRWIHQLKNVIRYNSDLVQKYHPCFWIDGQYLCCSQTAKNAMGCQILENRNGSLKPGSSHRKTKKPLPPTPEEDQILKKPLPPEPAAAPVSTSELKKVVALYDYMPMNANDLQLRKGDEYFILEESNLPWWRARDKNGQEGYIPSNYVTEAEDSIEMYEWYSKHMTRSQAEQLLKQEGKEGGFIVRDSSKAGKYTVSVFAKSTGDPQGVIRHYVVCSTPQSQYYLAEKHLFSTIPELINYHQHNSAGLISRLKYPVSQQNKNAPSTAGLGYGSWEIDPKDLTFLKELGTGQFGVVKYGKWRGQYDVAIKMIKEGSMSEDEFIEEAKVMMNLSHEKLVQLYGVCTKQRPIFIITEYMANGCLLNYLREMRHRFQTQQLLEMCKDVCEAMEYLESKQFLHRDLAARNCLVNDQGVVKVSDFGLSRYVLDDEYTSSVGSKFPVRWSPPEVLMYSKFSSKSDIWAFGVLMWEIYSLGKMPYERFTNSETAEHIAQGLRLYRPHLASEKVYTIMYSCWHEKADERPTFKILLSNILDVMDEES

The term Dmax denotes the largest share of the target that was removed. The low end stands for a partial loss of target, the high end for a fuller loss of target. What is called DC50 is the concentration giving 50% degradation. Low values mean degradation at low concentration, high ones degradation only at high concentration. As to `Nc1ncnc2c1c(-c1ccc(Oc3ccccc3)cc1)nn2[C@@H]1CCCN(C2CCN(CCN3CCC(c4ccc5c(c4)C(=O)N(C4CCC(=O)NC4=O)C5=O)CC3)CC2)C1` (stereo partly drawn) [Compound 149, 5-(1-(2-((R)-3-(4-amino-3-(4-phenoxyphenyl)-1H-pyrazolo[3,4-d]pyrimidin-1-yl)-[1,4′-bipiperidin]-1′-yl)ethyl)piperidin-4-yl)-2-(2,6-dioxopiperidin-3-yl)isoindoline-1,3-dione], the IC50 in assay [1] was in the range of 1000 to 10000 nM. The IC50 in assay [2] was over 10000 nM. For the same molecule, in assay [3], the Dmax was over 90% and the DC50 lay within 10 to 50 nM.
For `Nc1ncnc2c1c(-c1ccc(Oc3ccccc3)cc1)nn2[C@@H]1CCCN(C(=O)N2CCC(CCN3CCC(c4ccc5c(c4)C(=O)N(C4CCC(=O)NC4=O)C5=O)CC3)CC2)C1` (stereo partly drawn) [Compound 73, 5-(1-(2-(1-((R)-3-(4-amino-3-(4-phenoxyphenyl)-1H-pyrazolo[3,4-d]pyrimidin-1-yl)piperidine-1-carbonyl)piperidin-4-yl)ethyl)piperidin-4-yl)-2-(2,6-dioxopiperidin-3-yl)isoindoline-1,3-dione] the same measures were 1000 to 10000 nM, over 10000 nM, over 90% and 10 to 50 nM.
For `Nc1ncnc2c1c(-c1ccc(Oc3ccccc3)cc1)nn2C1CCN(C(=O)N2CCC(c3ccc4c(c3)C(=O)N(C3CCC(=O)NC3=O)C4=O)CC2)CC1` (stereo not shown) [Compound 77, 5-(1-(4-(4-amino-3-(4-phenoxyphenyl)-1H-pyrazolo[3,4-d]pyrimidin-1-yl)piperidine-1-carbonyl)piperidin-4-yl)-2-(2,6-dioxopiperidin-3-yl)isoindoline-1,3-dione] the same measures were over 10000 nM, over 10000 nM, over 50% and over 50 nM.
The matching figures for `Nc1ncnc2c1c(-c1ccc(Oc3ccccc3)cc1)nn2[C@@H]1CCCN(C2CCN(CCCN3CCN(c4ccc5c(c4)CN(C4CCC(=O)NC4=O)C5=O)CC3)CC2)C1` (stereo partly drawn) [Compound 152, 3-(5-(4-(3-((R)-3-(4-amino-3-(4-phenoxyphenyl)-1H-pyrazolo[3,4-d]pyrimidin-1-yl)-[1,4′-bipiperidin]-1′-yl)propyl)piperazin-1-yl)-1-oxoisoindolin-2-yl)piperidine-2,6-dione]: over 10000 nM, over 10000 nM, over 75% and over 50 nM.
`Nc1ncnc2c1c(-c1ccc(Oc3ccccc3)cc1)nn2[C@@H]1CCCN(C2CCN(CCCN3CCN(c4ccc5c(c4)C(=O)N(C4CCC(=O)NC4=O)C5=O)CC3)CC2)C1` (stereo partly drawn) [Compound 151, 5-(4-(3-((R)-3-(4-amino-3-(4-phenoxyphenyl)-1H-pyrazolo[3,4-d]pyrimidin-1-yl)-[1,4′-bipiperidin]-1′-yl)propyl)piperazin-1-yl)-2-(2,6-dioxopiperidin-3-yl)isoindoline-1,3-dione]: the IC50 in assay [1] was over 10000 nM. Also, the IC50 in assay [2] was over 10000 nM. In assay [3], this molecule had a Dmax of over 75% and a DC50 of over 50 nM.
For the molecule `Nc1ncnc2c1c(-c1ccc(Oc3ccccc3)cc1)nn2[C@@H]1CCCN(C(=O)N2CCC(CCCN3CCN(c4ccc5c(c4)CN(C4CCC(=O)NC4=O)C5=O)CC3)CC2)C1` (stereo partly drawn) [Compound 106, 3-(5-(4-(3-(1-((R)-3-(4-amino-3-(4-phenoxyphenyl)-1H-pyrazolo[3,4-d]pyrimidin-1-yl)piperidine-1-carbonyl)piperidin-4-yl)propyl)piperazin-1-yl)-1-oxoisoindolin-2-yl)piperidine-2,6-dione], in assay [1], the IC50 was over 10000 nM. In assay [2], the IC50 was over 10000 nM. Further, in assay [3], the Dmax is over 75% and the DC50 is over 50 nM.
On to `Nc1ncnc2c1c(-c1ccc(Oc3ccccc3)cc1)nn2[C@@H]1CCCN(C(=O)N2CCC(N3CCC(c4ccc5c(c4)CN(C4CCC(=O)NC4=O)C5=O)CC3)CC2)C1` (stereo partly drawn) [Compound 54, 3-(5-(1′-((R)-3-(4-amino-3-(4-phenoxyphenyl)-1H-pyrazolo[3,4-d]pyrimidin-1-yl)piperidine-1-carbonyl)-[1,4′-bipiperidin]-4-yl)-1-oxoisoindolin-2-yl)piperidine-2,6-dione], for which, in assay [1], the IC50 is under 1000 nM. Further, the IC50 in assay [2] was under 1000 nM. In assay [3], this molecule gave a Dmax of over 90% and a DC50 of under 10 nM.
As to `Nc1ncnc2c1c(-c1ccc(Oc3ccccc3)cc1)nn2[C@@H]1CCCN(C2CCN(C(=O)N3CCN(CC4CCN(c5ccc6c(c5)CN(C5CCC(=O)NC5=O)C6=O)CC4)CC3)CC2)C1` (stereo partly drawn) [Compound 172, 3-(5-(4-((4-((R)-3-(4-amino-3-(4-phenoxyphenyl)-1H-pyrazolo[3,4-d]pyrimidin-1-yl)-[1,4′-bipiperidine]-1′-carbonyl)piperazin-1-yl)methyl)piperidin-1-yl)-1-oxoisoindolin-2-yl)piperidine-2,6-dione], in assay [1], the IC50 was 1000 to 10000 nM. Moreover, the IC50 in assay [2] lay within 1000 to 10000 nM. In addition, in assay [3], the Dmax was over 90% and the DC50 lay in the range of 10 to 50 nM.
With `Nc1ncnc2c1c(-c1ccc(Oc3ccccc3)cc1)nn2C1CCN(C(=O)N2CCC(CCC3CCN(c4ccc5c(c4)CN(C4CCC(=O)NC4=O)C5=O)CC3)CC2)CC1` (stereo not shown) [Compound 102, 3-(5-(4-(2-(1-(4-(4-amino-3-(4-phenoxyphenyl)-1H-pyrazolo[3,4-d]pyrimidin-1-yl)piperidine-1-carbonyl)piperidin-4-yl)ethyl)piperidin-1-yl)-1-oxoisoindolin-2-yl)piperidine-2,6-dione], the IC50 in assay [1] fell in the range of 1000 to 10000 nM. The IC50 in assay [2] is over 10000 nM. In assay [3], this molecule yielded a Dmax of over 90% and a DC50 of 10 to 50 nM.
The matching figures for `Nc1ncnc2c1c(-c1ccc(Oc3ccccc3)cc1)nn2[C@@H]1CCCN(CC2CCN(C(=O)N3CCC(CN4CCN(c5ccc6c(c5)CN(C5CCC(=O)NC5=O)C6=O)CC4)CC3)CC2)C1` (stereo partly drawn) [Compound 32, 3-(5-(4-((1-(4-(((R)-3-(4-amino-3-(4-phenoxyphenyl)-1H-pyrazolo[3,4-d]pyrimidin-1-yl)piperidin-1-yl)methyl)piperidine-1-carbonyl)piperidin-4-yl)methyl)piperazin-1-yl)-1-oxoisoindolin-2-yl)piperidine-2,6-dione]: 1000 to 10000 nM, 1000 to 10000 nM, over 90% and 10 to 50 nM.
For `Nc1ncnc2c1c(-c1ccc(Oc3ccccc3)cc1)nn2[C@@H]1CCCN(C(=O)N2CCN(CCCC3CCN(c4ccc5c(c4)CN(C4CCC(=O)NC4=O)C5=O)CC3)CC2)C1` (stereo partly drawn) [Compound 110, 3-(5-(4-(3-(4-((R)-3-(4-amino-3-(4-phenoxyphenyl)-1H-pyrazolo[3,4-d]pyrimidin-1-yl)piperidine-1-carbonyl)piperazin-1-yl)propyl)piperidin-1-yl)-1-oxoisoindolin-2-yl)piperidine-2,6-dione] the same measures were over 10000 nM, over 10000 nM, over 75% and over 50 nM.
Consider `Nc1ncnc2c1c(-c1ccc(Oc3ccccc3)cc1)nn2[C@@H]1CCCN(C(=O)N2CCC(CCCC3CCN(c4ccc5c(c4)CN(C4CCC(=O)NC4=O)C5=O)CC3)CC2)C1` (stereo partly shown) [Compound 114], for which the IC50 in assay [1] and in assay [2] was 1000 to 10000 nM each time. This molecule displayed a Dmax in assay [3] of over 75%. In assay [3], this molecule displayed a DC50 of over 50 nM.
On to `Nc1ncnc2c1c(-c1ccc(Oc3ccccc3)cc1)nn2C1CCN(C(=O)N2CCN(CCN3CCC(c4ccc5c(c4)C(=O)N(C4CCC(=O)NC4=O)C5=O)CC3)CC2)CC1` (stereo not shown) [Compound 99, 5-(1-(2-(4-(4-(4-amino-3-(4-phenoxyphenyl)-1H-pyrazolo[3,4-d]pyrimidin-1-yl)piperidine-1-carbonyl)piperazin-1-yl)ethyl)piperidin-4-yl)-2-(2,6-dioxopiperidin-3-yl)isoindoline-1,3-dione], for which the IC50 in assay [1] was over 10000 nM. Further, the IC50 in assay [2] lay in the range of 1000 to 10000 nM. In assay [3], this molecule came in with a Dmax of over 90% and a DC50 of 10 to 50 nM.
For `Nc1ncnc2c1c(-c1ccc(Oc3ccccc3)cc1)nn2[C@@H]1CCCN(C2CCN(C(=O)N3CCC(CC4CCN(c5ccc6c(c5)CN(C5CCC(=O)NC5=O)C6=O)CC4)CC3)CC2)C1` (stereo partly drawn) [Compound 168, 3-(5-(4-((1-((R)-3-(4-amino-3-(4-phenoxyphenyl)-1H-pyrazolo[3,4-d]pyrimidin-1-yl)-[1,4′-bipiperidine]-1′-carbonyl)piperidin-4-yl)methyl)piperidin-1-yl)-1-oxoisoindolin-2-yl)piperidine-2,6-dione] the same measures were under 1000 nM, 1000 to 10000 nM, over 90% and 10 to 50 nM.
Take `Nc1ncnc2c1c(-c1ccc(Oc3ccccc3)cc1)nn2C1CCCN(CCOCCN2CCN(c3ccc4c(c3)C(=O)N(C3CCC(=O)NC3=O)C4=O)CC2)C1` (stereo not shown) [Compound 7, 5-(4-(2-(2-(3-(4-amino-3-(4-phenoxyphenyl)-1H-pyrazolo[3,4-d]pyrimidin-1-yl)piperidin-1-yl)ethoxy)ethyl)piperazin-1-yl)-2-(2,6-dioxopiperidin-3-yl)isoindoline-1,3-dione]: the IC50 in assay [1] was 1000 to 10000 nM. Also, the IC50 in assay [2] is 1000 to 10000 nM. In assay [3], this molecule came in with a Dmax of over 75% and a DC50 of 10 to 50 nM.
`Nc1ncnc2c1c(-c1ccc(Oc3ccccc3)cc1)nn2[C@@H]1CCCN(C(=O)N2CCN(CCN3CCN(c4ccc5c(c4)C(=O)N(C4CCC(=O)NC4=O)C5=O)CC3)CC2)C1` (stereo partly drawn) [Compound 65, 5-(4-(2-(4-((R)-3-(4-amino-3-(4-phenoxyphenyl)-1H-pyrazolo[3,4-d]pyrimidin-1-yl)piperidine-1-carbonyl)piperazin-1-yl)ethyl)piperazin-1-yl)-2-(2,6-dioxopiperidin-3-yl)isoindoline-1,3-dione]: the IC50 in assay [1] was in the range of 1000 to 10000 nM. In addition, in assay [2], the IC50 fell in the range of 1000 to 10000 nM. Also, in assay [3], the maximal degradation (Dmax) was over 90% and the DC50 is under 10 nM.

These data come from patent US12139492B2 (Endotarget Inc., priority 2021, dated 2024).
